Values quoted from earlier work in patent US20050112193A1, “Immediate-release formulations of acid-labile pharmaceutical compositions” (priority 2003, published 2005).
Read-outs that look alike come from different tables or passages of the source.

Tests used:
[1] = in water
[2] = for time to undergo 50% degradation: acidic stomach / gastric environment, pH of 1.2 given for pantoprazole sodium and rabeprazole sodium

Solubility [1] | time to undergo 50% degradation [2] | time for 50% of drug to be degraded (t ½) ([2]; pH 1.2) | time for 50% of drug to be degraded (t ½) ([2]; pH 5) | time for 50% of drug to be degraded (t ½) ([2]; pH 5.1) | time for 50% of drug to be degraded (t ½) ([2]; pH 6) | time for 50% of drug to be degraded (t ½) ([2]; pH 7) | pKa | Solubility ([1]; listed as Lansoprazole base) | Solubility ([1]; listed as Omeprazole base) | SMILES
very soluble | less than 5 minutes | 0.0767 h | 2.8 h | 4.7 h | 21 h | 73 h | 3 | – | – | COc1ccnc(C[S+]([O-])c2nc3ccc(OC(F)F)cc3[nH]2)c1OC (stereo not drawn) [Pantoprazole sodium]
– | 2 min | 0.0333 h | – | 1.5 h | 6.4 h | 35 h | 4.1 | very slightly soluble | – | Cc1c(OCC(F)(F)F)ccnc1C[S+]([O-])c1nc2ccccc2[nH]1 (stereo not drawn) [Lansoprazole]
– | less than 3 minutes | 0.0467 h | – | 1.4 h | 7.3 h | 39 h | 3.9 | – | slightly soluble | COc1ccc2[nH]c([S+]([O-])Cc3ncc(C)c(OC)c3C)nc2c1 (stereo not drawn) [Omeprazole, 5-methoxy-2-[[(4-methoxy-3,5-dimethyl-2-pyridinyl)methyl]sulfinyl]-1H-benzimidazole]
Very soluble | less than 1.5 minutes | 0.0217 h | – | 0.12 h | – | – | 4.9 | – | – | COCCCOc1ccnc(C[S+]([O-])c2nc3ccccc3[nH]2)c1C (stereo not drawn) [Rabeprazole sodium]
